Reference: patent US10294202B2, “Pyrrolidinones as herbicides” (FMC Corporation, priority 2013, dated 2019)

How the values were obtained:
giant foxtail = assay: Test A pre-/postemergence herbicide test; type: in vivo, Setaria faberii
How it was run: (§1)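 Both application timings used compounds in a non-phytotoxic solvent plus surfactant. Pre-emergence: soil sprayed directly after seeding into loam/sand. Post-emergence: foliage of 2–10 cm seedlings (1–2 leaves) sprayed. Injury rated ~10 days later, 0–100.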

pigweed = assay: Test A pre-/postemergence herbicide test; type: in vivo, Amaranthus retroflexus
How it was run: as §1

ducksalad = assay: Test B flooded paddy test; type: in vivo, Heteranthera limosa; conditions: 250 g ai/ha, Flood; scale of 0 to 100 where 0 is no effect and 100 is complete control
How it was run: (§2)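 First, plants reach the 2-leaf stage; next, pots are flooded to 3 cm and compound is delivered into the water; finally, after 13 to 15 greenhouse days at constant depth, injury is graded visually from 0 to 100 against controls.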

rice = assay: Test B flooded paddy test; type: in vivo, Oryza sativa; conditions: 250 g ai/ha, Flood; scale of 0 to 100 where 0 is no effect and 100 is complete control
How it was run: as §2

sedge, umbrella = assay: Test B flooded paddy test; type: in vivo, Cyperus difformis; conditions: 250 g ai/ha, Flood; scale of 0 to 100 where 0 is no effect and 100 is complete control
How it was run: as §2

crabgrass, large = assay: Test A pre-/postemergence herbicide test; type: in vivo, Digitaria sanguinalis
How it was run: as §1

barnyardgrass [1] = assay: Test B flooded paddy test; type: in vivo, Echinochloa crus-galli; conditions: 250 g ai/ha, Flood; scale of 0 to 100 where 0 is no effect and 100 is complete control
How it was run: as §2

corn = assay: Test A pre-/postemergence herbicide test; type: in vivo, Zea mays
How it was run: as §1

velvetleaf = assay: Test A pre-/postemergence herbicide test; type: in vivo, Abutilon theophrasti
How it was run: as §1

barnyardgrass [2] = assay: Test A pre-/postemergence herbicide test; type: in vivo, Echinochloa crus-galli
How it was run: as §1

wheat = assay: Test A pre-/postemergence herbicide test; type: in vivo, Triticum aestivum
How it was run: as §1

morningglory = assay: Test A pre-/postemergence herbicide test; type: in vivo, Ipomoea spp.
How it was run: as §1

[3] = Postemergence, 1000 g ai/ha, 0 to 100 scale (0 no effect, 100 complete control)
[4] = Preemergence, 1000 g ai/ha, visual rating on 0 to 100 scale (0 no effect, 100 complete control), approx. 10 days
[5] = Postemergence, 125 g ai/ha, 0 to 100 scale, 0 no effect, 100 complete control
[6] = Postemergence, 500 g ai/ha, 0 to 100 scale (0 no effect, 100 complete control)
[7] = Preemergence, 125 g ai/ha, visual rating on 0 to 100 scale (0 no effect, 100 complete control)
[8] = preemergence, 500 g ai/ha, 0 to 100 scale
[9] = preemergence, 500 g ai/ha, 0 to 100 scale (0 no effect, 100 complete control)

Compound	Plant response rating, Ducksalad (ducksalad)	Plant response rating, Rice (rice)	Plant response rating, Sedge, Umbrella (sedge, umbrella)	Plant response rating, Barnyardgrass (barnyardgrass [1])	Plant response rating, Foxtail, Giant (giant foxtail; [5])	Plant response rating, Foxtail, Giant (giant foxtail; [6])	Foxtail, Giant plant response rating (giant foxtail; [7])	Plant response rating, Foxtail, Giant (giant foxtail; [8])	Plant response rating, Pigweed (pigweed; [5])	Plant response rating, Pigweed (pigweed; [6])	Pigweed plant response rating (pigweed; [7])	Plant response rating, Pigweed (pigweed; [8])	Plant response rating, Crabgrass, Large (crabgrass, large; [5])	Plant response rating, Crabgrass, Large (crabgrass, large; [6])	Crabgrass, Large plant response rating (crabgrass, large; [7])	Plant response rating, Crabgrass, Large (crabgrass, large; [8])	Corn plant response rating (corn; [7])	Plant response rating, Corn (corn; [8])	Plant response rating, Velvetleaf (velvetleaf; [5])	Plant response rating, Velvetleaf (velvetleaf; [6])	also measured
CS(=O)(=O)c1ccccc1NC(=O)C1C(=O)NCC1c1ccc(Cl)c(Cl)c1 (stereo not drawn) [Compound 43]	0	0	0	0	–	–	–	–	–	–	–	–	–	–	–	–	–	–	–	–	Plant response rating, Foxtail, Giant (giant foxtail; [3]): 50; Plant response rating, Foxtail, Giant (giant foxtail; [4]): 80; Plant response rating, Pigweed (pigweed; [3]): 20; Plant response rating, Pigweed (pigweed; [4]): 0; Plant response rating, Crabgrass, Large (crabgrass, large; [3]): 20; Plant response rating, Crabgrass, Large (crabgrass, large; [4]): 90; Plant response rating, Corn (corn; [3]): 0; Plant response rating, Corn (corn; [4]): 0; Plant response rating, Velvetleaf (velvetleaf; [3]): 30; Plant response rating, Velvetleaf (velvetleaf; [4]): 0; Plant response rating, Barnyardgrass (barnyardgrass [2]; [3]): 40; Plant response rating, Barnyardgrass (barnyardgrass [2]; [4]): 20; Plant response rating, Wheat (wheat; [3]): 0; Plant response rating, Wheat (wheat; [4]): 0; Plant response rating, Morningglory (morningglory; [3]): 10; Plant response rating, Morningglory (morningglory; [4]): 0
COc1ncccc1NC(=O)C1C(=O)NCC1c1ccc(F)c(F)c1 (stereo not drawn) [Compound 46]	0	0	0	0	0	40	40	80	0	0	0	0	30	60	70	90	0	0	0	0	Velvetleaf plant response rating (velvetleaf; [7]): 0; Plant response rating, Velvetleaf (velvetleaf; [8]): 0; Plant response rating, Barnyardgrass (barnyardgrass [2]; [5]): 0; Plant response rating, Barnyardgrass (barnyardgrass [2]; [6]): 0; Barnyardgrass plant response rating (barnyardgrass [2]; [7]): 0; Plant response rating, Barnyardgrass (barnyardgrass [2]; [9]): 50; Plant response rating, Wheat (wheat; [5]): 0; Plant response rating, Wheat (wheat; [6]): 0; Wheat plant response rating (wheat; [7]): 0; Plant response rating, Wheat (wheat; [8]): 0; Plant response rating, Morningglory (morningglory; [5]): 0; Plant response rating, Morningglory (morningglory; [6]): 0; Morningglory plant response rating (morningglory; [7]): 0; Plant response rating, Morningglory (morningglory; [8]): 0
O=C1NCC(c2ccc(F)c(F)c2)C1C(=O)Nc1ccccc1Br (stereo not drawn) [Compound 55]	75	50	70	50	70	80	70	90	0	0	0	0	80	80	80	90	0	0	0	0	Plant response rating, Corn (corn; [5]): 0; Plant response rating, Corn (corn; [6]): 0; Velvetleaf plant response rating (velvetleaf; [7]): 0; Plant response rating, Velvetleaf (velvetleaf; [8]): 0; Plant response rating, Barnyardgrass (barnyardgrass [2]; [5]): 30; Plant response rating, Barnyardgrass (barnyardgrass [2]; [6]): 90; Barnyardgrass plant response rating (barnyardgrass [2]; [7]): 20; Plant response rating, Barnyardgrass (barnyardgrass [2]; [9]): 80; Plant response rating, Wheat (wheat; [5]): 0; Plant response rating, Wheat (wheat; [6]): 0; Wheat plant response rating (wheat; [7]): 0; Plant response rating, Wheat (wheat; [8]): 0; Plant response rating, Morningglory (morningglory; [5]): 0; Plant response rating, Morningglory (morningglory; [6]): 0; Morningglory plant response rating (morningglory; [7]): 0; Plant response rating, Morningglory (morningglory; [8]): 0
O=C1NCC(c2ccc(F)c(F)c2)C1C(=O)Nc1cccc2c1OC(F)(F)O2 (stereo not drawn) [Compound 57]	0	0	0	0	50	60	60	80	0	0	0	0	50	70	80	90	0	0	0	0	Plant response rating, Corn (corn; [5]): 0; Plant response rating, Corn (corn; [6]): 0; Velvetleaf plant response rating (velvetleaf; [7]): 0; Plant response rating, Velvetleaf (velvetleaf; [8]): 0; Plant response rating, Barnyardgrass (barnyardgrass [2]; [5]): 70; Plant response rating, Barnyardgrass (barnyardgrass [2]; [6]): 80; Barnyardgrass plant response rating (barnyardgrass [2]; [7]): 40; Plant response rating, Barnyardgrass (barnyardgrass [2]; [9]): 80; Plant response rating, Wheat (wheat; [5]): 0; Plant response rating, Wheat (wheat; [6]): 0; Wheat plant response rating (wheat; [7]): 0; Plant response rating, Wheat (wheat; [8]): 0; Plant response rating, Morningglory (morningglory; [5]): 0; Plant response rating, Morningglory (morningglory; [6]): 0; Morningglory plant response rating (morningglory; [7]): 0; Plant response rating, Morningglory (morningglory; [8]): 0
COc1cccc(NC(=O)C2C(=O)NCC2c2ccc(F)c(F)c2)n1 (stereo not drawn) [Compound 58]	0	0	0	0	20	70	20	80	0	0	0	0	40	80	70	90	0	0	0	0	Plant response rating, Corn (corn; [5]): 0; Plant response rating, Corn (corn; [6]): 0; Velvetleaf plant response rating (velvetleaf; [7]): 0; Plant response rating, Velvetleaf (velvetleaf; [8]): 0; Plant response rating, Barnyardgrass (barnyardgrass [2]; [5]): 0; Plant response rating, Barnyardgrass (barnyardgrass [2]; [6]): 0; Barnyardgrass plant response rating (barnyardgrass [2]; [7]): 0; Plant response rating, Barnyardgrass (barnyardgrass [2]; [9]): 20; Plant response rating, Wheat (wheat; [5]): 0; Plant response rating, Wheat (wheat; [6]): 0; Wheat plant response rating (wheat; [7]): 0; Plant response rating, Wheat (wheat; [8]): 0; Plant response rating, Morningglory (morningglory; [5]): 0; Plant response rating, Morningglory (morningglory; [6]): 0; Morningglory plant response rating (morningglory; [7]): 0; Plant response rating, Morningglory (morningglory; [8]): 0
